Test results as given in patent US8691799B2, “Materials and methods for treatment of cancer and identification of anti-cancer compounds” (priority 2001, dated 2014).
“Also recorded” adds a separate entry of the source. Like-named read-outs stand apart in the source and are kept apart here.

Assays:
phosphotyrosine STAT3 [1] = assay: Western blotting for phosphotyrosine STAT3 in cancer cell lines; type: cell-based, human
Description: (§1) Western Blotting. Treated cell samples were lysed in 30 mM Hepes, pH 7.5, 10 mM NaCl, 5 mM MgCl2, 25 mM NaF, 1 mM EGTA, 1% Triton-X-100, 10% glycerol, 2 mM sodium orthovanadate, 10 μg/ml aprotinin, 10 μg/ml soybean trypsin inhibitor, 25 μg/ml leupeptin, 2 mM PMSF, and 6.4 mg/ml p-nitrophenylphosphate. Phospho-STAT3, phospho-AKT, phospho-MEK, and phospho-p42/p44 MAPK antibodies were obtained from Cell Signaling Technologies, Cambridge, Mass. Antibodies to STAT3, JAK2, and phospho-INK were purchased from Santa Cruz Biotechnology, Santa Cruz, Calif. Phospho-JAK2 antibody came from Upstate Biotechnology, Lake Placid, N.Y. Membranes were blocked in either 5% milk in PBS, pH 7.4, containing 0.1% Tween-20 (PBS-T) or 1% BSA in TBS, pH 7.5, containing 0.1% Tween-20 (TBS-T). Phospho-specific antibodies (excepting P-MAPK and P-JNK) were incubated in 1% BSA in TBS-T while all other antibodies were diluted in 5% milk in PBS-T for either 2 hr at room temperature or overnight at 4° C. HRP-conjugated secondary antibodies (Jackson ImmunoResearch) were diluted in 5% milk in either PBS-T or TBS-T at 1:1000 dilution for one hour at room temperature. Western blots were visualized using enhanced chemiluminescence as described previously (Blaskovich, M. A. et al. Nat. Biotechnol., 2000, 18:1065-1070).
Immunoprecipitation of STAT3. A549 cells were treated for 4 hr with vehicle or JSI-124, then lysed in 150 mM Hepes, pH 7.5, 150 mM NaCl, 1 mM EDTA, 0.5% Nonidet P-40 (NP-40), 10% glycerol, 5 mM NaF, 1 mM DTT, 1 mM PMSF, 2 mM sodium orthovanadate, and 5 μg/ml leupeptin. Sample lysates were collected and cleared, then 500 μg of lysate was immunoprecipitated with 50 ng STAT3 antibody overnight at 4° C. then rocked with 25 μl Protein A/G PLUS agarose (Santa Cruz Biotechnology) for 1 hr at 4° C. Samples were washed four times with lysis buffer then boiled in 2×SDS-PAGE sample buffer and run on 10% SDS-PAGE gel. Protein was transferred to nitrocellulose and then blotted as above for both phospho-specific STAT3 and STAT3.

[2] = tested on: STAT3 DNA-binding activity; assay: Electrophoretic mobility shift assay (EMSA) of nuclear extracts; type: cell-based; details: nuclear extracts from v-Src/NIH 3T3 and A549 cells
Description: Nuclear Extract Preparation and Gel Shift Assay. Nuclear extract preparation and electrophoretic mobility shift assay were carried out as previously described (Turkson, J. et al. Mol. Cell Biol., 1999, 19:7519-7528). The ^32P-radiolabeled oligonucleotide probe is hSIE (high affinity sis-inducible element, m67 variant, 5′-[…]-3′) (SEQ ID NO. 1) that binds STAT1 and STAT3.

phosphotyrosine STAT3 [3] = assay: Cytoblot screening for phospho-STAT3 inhibition in v-Src-transformed NIH 3T3 cells; type: cell-based, murine; details: 10 μM, 4 hr
Description: Cytoblot Screening for Phospho-STAT3 Inhibition. NIH 3T3 cells stably transfected with v-Src or NIH 3T3 vector control cells (Turkson, J. et al. Mol. Cell Biol., 1999, 19:7519-7528) were plated into sterile, opaque, 96-well tissue culture plates at 25,000 cells/well. After overnight growth at 37° C., the cells were treated for 4 hr in the presence of either vehicle control or 10 μM of NCI Diversity Set compounds (http://dtp.nci.nih.gov/). After treatment, cells were washed in 100 μl cold TBS (10 mM Tris, pH 7.4, 150 mM NaCl), then fixed for one hour at 4° C. with 190 μl per well of cold 3.7% formaldehyde in TBS as described previously (Stockwell, B. R. et al. Chem. Biol., 1999, 6:71-83). Membranes were permeabilized during a five-minute incubation in ice-cold methanol at 4° C. Cells were washed with 180 μl per well 3% milk in TBS then rocked overnight at 4° C. with 50 μl per well of 3% milk in TBS containing 1:1000 dilution of anti-phospho-STAT3 (P-Tyr 705; Cell Signaling Technology, Beverly, Mass.) and 1:2000 dilution of HRP-conjugated goat anti-rabbit IgG (Jackson ImmunoResearch, West Grove, Pa.). Antibodies were aspirated and then plates were washed twice with 180 μl per well TBS. […] Quantification of results was done using GS-700 scanning densitometer (Bio-Rad Laboratories, Hercules, Calif.).

STAT3 = assay: Western blotting for STAT3 protein levels; type: cell-based, human; details: A549 and MDA-MB-468 cells
Description: as §1
Immunoprecipitation of STAT3. […]

Structure (SMILES): CC(C)(O)/C=C/C(=O)[C@](C)(O)[C@H]1[C@H](O)C[C@@]2(C)[C@@H]3CC=C4[C@@H](C=C(O)C(=O)C4(C)C)[C@]3(C)C(=O)C[C@]12C [JSI-124, cucurbitacin I]
- levels of tyrosine phosphorylated STAT3 (Western blot) (phosphotyrosine STAT3 [1]; 10 μM, 4 hr, A549, MDA-MB-468, MDA-MB-231, Panc-1 and v-Src NIH 3T3 cells): very effective at reducing the levels of tyrosine phosphorylated STAT3
- phosphotyrosine STAT3 levels after STAT3 immunoprecipitation (phosphotyrosine STAT3 [1]; 10 μM, 4 hr, A549 and MDA-MB-468 cells): reduced phosphotyrosine STAT3 to barely detectable levels
- levels of tyrosine phosphorylated STAT3, various concentrations (phosphotyrosine STAT3 [1]; A549 and MDA-MB-468 cells, 0-10 μM, 4 hr): reduction of the levels of tyrosine phosphorylated STAT3; also recorded: suppression of phospho-STAT3 levels in both cell lines
- inhibition of phospho STAT3 levels (in words) (phosphotyrosine STAT3 [1]; A-549 cells, 0-10 μM): inhibits both phospho STAT3 and phospho JAK2 levels
- IC50 (phosphotyrosine STAT3 [1]; A-549 cells, Western blotting, read-out: IC50 for phospho-STAT3): 0.2 µM
- IC50 (phosphotyrosine STAT3 [1]; read-out: IC50 as suppressor of the JAK/STAT3 tumor survival pathway): 0.2 µM
- STAT3 DNA-binding activity (EMSA) [2]: greatly reduced
- phosphotyrosine STAT3 levels (cytoblot) (phosphotyrosine STAT3 [3]): reduced phosphotyrosine STAT3 to barely detectable levels
- STAT3 protein levels (STAT3): no effect on the protein levels of STAT3 and JAK2
